The values below come from ChEMBL document CHEMBL5724914, “Linking interpersonal differences in gut microbiota composition and drug biotransformation activity” (2024).

Data set [1] is described as follows: The drug is tested on WLS-069 corresponding to human gut metagenome with ENA study accession number: PRJEB37062 and ENA sample accession number: ERS12561748 for biotransformation under anaerobic condition. The drug concentrations were measured over 9 timepoints collected between 0 and 24 hours of incubation by liquid-chromatography-coupled mass spectrometry (LC–MS). Particulars: 2 µM.

The nature of data set [2]: The drug is tested on WLS-240 corresponding to human gut metagenome with ENA study accession number: PRJEB37062 and ENA sample accession number: ERS12561773 for biotransformation under anaerobic condition. The drug concentrations were measured over 9 timepoints collected between 0 and 24 hours of incubation by liquid-chromatography-coupled mass spectrometry (LC–MS). The following applies: 2 µM.

For data set [3] the following is noted: human gut metagenome, 24 h, 2 µM.
Data set [4] can be described thus: The drug is tested on WLS-073 corresponding to human gut metagenome with ENA study accession number: PRJEB37062 and ENA sample accession number: ERS12561749 for biotransformation under anaerobic condition. The drug concentrations were measured over 9 timepoints collected between 0 and 24 hours of incubation by liquid-chromatography-coupled mass spectrometry (LC–MS). The following applies: 2 µM.

For data set [5] the following is noted: human gut metagenome, 24 h, 2 µM. The source holds these as a separate data set.
Data set [6] is described as follows: The drug is tested on WLS-006 corresponding to human gut metagenome with ENA study accession number: PRJEB37062 and ENA sample accession number: ERS12561741 for biotransformation under anaerobic condition. The drug concentrations were measured over 9 timepoints collected between 0 and 24 hours of incubation by liquid-chromatography-coupled mass spectrometry (LC–MS). The following applies: 2 µM.

Data set [7] can be described thus: The drug is tested on WLS-170 corresponding to human gut metagenome with ENA study accession number: PRJEB37062 and ENA sample accession number: ERS12561762 for biotransformation under anaerobic condition. The drug concentrations were measured over 9 timepoints collected between 0 and 24 hours of incubation by liquid-chromatography-coupled mass spectrometry (LC–MS). The following applies: 2 µM.

For data set [8] the following is noted: human gut metagenome, 24 h, 2 µM. This is another data set of the same source.
The conditions of data set [9]: human gut metagenome, 24 h, 2 µM. This is another data set of the same source.

Each structure is given as a SMILES string.
Note: call rule not given here.

In the case of `NC(CO)(CO)CO.O=C(c1ccccc1)c1ccc2n1CCC2C(=O)O` (stereo not drawn) [KETOROLAC TROMETHAMINE], the “Bacterial Biotransformation” value in [1], in data set [2], in [3], in data set [4], in data set [5] and in data set [6] was “Compound metabolized” throughout. In addition, the “Bacterial Biotransformation” value in [7], in [8] and in [9] was “Compound metabolized” each time.
Regarding `CC[C@H](C)C(=O)O[C@H]1C[C@@H](C)C=C2C=C[C@H](C)[C@H](CC[C@@H]3C[C@@H](O)CC(=O)O3)[C@H]21` [LOVASTATIN], the “Bacterial Biotransformation” value in [1], in [2], in data set [3], in data set [4], in data set [5] and in [6] was “Compound NOT metabolized” throughout. Further, the “Bacterial Biotransformation” value in [7] is “Compound NOT metabolized”; in data set [8], “Compound NOT metabolized”; in data set [9], “Compound metabolized”.
As for `CN1C(=O)CC(C)(c2ccccc2)C1=O` (stereo not drawn) [METHSUXIMIDE], the “Bacterial Biotransformation” value is reported as “Compound NOT metabolized” in data set [1]; “Compound metabolized” in [2]; “Compound NOT metabolized” in [3]; “Compound NOT metabolized” in data set [4]; “Compound NOT metabolized” in data set [5]; “Compound NOT metabolized” in data set [6]. In addition, the “Bacterial Biotransformation” value is given as “Compound metabolized” in data set [7], “Compound NOT metabolized” in [8] and “Compound metabolized” in data set [9].
With `COc1ccccc1N1CCN(CC(O)COc2cccc3ccccc23)CC1` (stereo not drawn) [NAFTOPIDIL], the “Bacterial Biotransformation” value in [1], in data set [2], in data set [3], in data set [4], in data set [5] and in [6] was “Compound NOT metabolized” each time. The “Bacterial Biotransformation” value in data set [7], in data set [8] and in data set [9] was “Compound NOT metabolized” throughout.
For the molecule `CNC(=C[N+](=O)[O-])NCCSCc1csc(CN(C)C)n1` [NIZATIDINE], the “Bacterial Biotransformation” value in [1] is recorded as “Compound metabolized”; in [2], “Compound NOT metabolized”; in data set [3], “Compound NOT metabolized”; in [4] it was “Compound metabolized”; in [5] it was “Compound metabolized”; in data set [6], “Compound metabolized”. In addition, the “Bacterial Biotransformation” value in data set [7], in data set [8] and in [9] was “Compound metabolized” in each case.
In the case of `COc1ccc2[nH]c([S+]([O-])Cc3ncc(C)c(OC)c3C)nc2c1` (stereo not drawn) [OMEPRAZOLE], the “Bacterial Biotransformation” value in data set [1], in data set [2], in data set [3], in [4], in data set [5] and in [6] was “Compound metabolized” each time. Also, the “Bacterial Biotransformation” value in [7], in data set [8] and in data set [9] was “Compound metabolized” throughout.
Take `O=C(O)CCc1nc(-c2ccccc2)c(-c2ccccc2)o1` [OXAPROZIN]: the “Bacterial Biotransformation” value in data set [1], in data set [2], in data set [3], in data set [4], in data set [5] and in [6] was “Compound metabolized” throughout. Besides, the “Bacterial Biotransformation” value in [7] was “Compound metabolized”; in data set [8], “Compound metabolized”; in data set [9] it was “Compound NOT metabolized”.
Consider `CN(C(=O)CN(CCO)CC(=O)N(C)C(C)(C)Cc1ccccc1)C(C)(C)Cc1ccccc1` [OXETHAZAINE], for which the “Bacterial Biotransformation” value was “Compound metabolized” in data set [1]; “Compound metabolized” in data set [2]; “Compound NOT metabolized” in data set [3]; “Compound metabolized” in data set [4]; “Compound metabolized” in data set [5]; “Compound metabolized” in data set [6]. Besides, the entries for the “Bacterial Biotransformation” value in [7], in [8] and in data set [9] were “Compound metabolized”, “Compound NOT metabolized” and “Compound metabolized”, respectively.
Turning to `Cc1nc2n(c(=O)c1CCN1CCC(c3noc4cc(F)ccc34)CC1)CCCC2O` (stereo not drawn) [PALIPERIDONE], the “Bacterial Biotransformation” value in data set [1], in data set [2], in data set [3], in data set [4], in data set [5] and in [6] was “Compound metabolized” throughout. For the same molecule, the “Bacterial Biotransformation” value in data set [7] was “Compound NOT metabolized”; in [8] it was “Compound metabolized”; in data set [9] it was “Compound metabolized”.
Take `CC(C)(C)NC[C@H](O)COc1ccccc1C1CCCC1.CC(C)(C)NC[C@H](O)COc1ccccc1C1CCCC1.O=S(=O)(O)O` [PENBUTOLOL SULFATE]: the “Bacterial Biotransformation” value in data set [1], in [2], in [3], in data set [4], in data set [5] and in data set [6] was “Compound metabolized” in each case. The “Bacterial Biotransformation” value in data set [7], in data set [8] and in data set [9] was “Compound metabolized” throughout.
With `CCOc1ccc(NC(C)=O)cc1` [PHENACETIN], the “Bacterial Biotransformation” value in data set [1], in [2], in data set [3], in data set [4], in data set [5] and in data set [6] was “Compound NOT metabolized” in each case. The “Bacterial Biotransformation” value in data set [7], in [8] and in [9] was “Compound NOT metabolized” each time.
Regarding `Nc1ccc(/N=N/c2ccccc2)c(N)n1` [PHENAZOPYRIDINE], the “Bacterial Biotransformation” value in data set [1], in data set [2], in data set [3], in data set [4], in data set [5] and in [6] was “Compound metabolized” in each case. The “Bacterial Biotransformation” value in data set [7], in [8] and in [9] was “Compound metabolized” each time.
